From ChEMBL document CHEMBL1157069, “JBIR-22, an inhibitor for protein-protein interaction of the homodimer of proteasome assembly factor 3” (J Nat Prod, 2010)
pIC50: −log10 of the molar value.

What was measured:
[1] = target: Catenin beta-1/Transcription factor 7 (Homo sapiens, UniProt P35222+P36402); test: Inhibition of T cell factor7/beta-catenin interaction by protein fragment complementation assay; format: cell-based
[2] = target: T1, Proteasome assembly chaperone 3 (Homo sapiens, UniProt Q9BT73); test: Inhibition of PAC3 homodimerization by protein fragment complementation assay
T1 sequence (Q9BT73 whole entry): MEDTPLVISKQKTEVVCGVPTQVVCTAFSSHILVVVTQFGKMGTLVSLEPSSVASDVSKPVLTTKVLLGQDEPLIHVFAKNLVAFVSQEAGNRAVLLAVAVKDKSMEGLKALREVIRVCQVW

[3] = target: T2, PAC1-PAC2 complex (Homo sapiens, UniProt O95456+Q969U7); test: Inhibition of PAC1/PAC2 interaction by protein fragment complementation assay; format: protein-complex assay
T2 sequence (O95456 whole entry): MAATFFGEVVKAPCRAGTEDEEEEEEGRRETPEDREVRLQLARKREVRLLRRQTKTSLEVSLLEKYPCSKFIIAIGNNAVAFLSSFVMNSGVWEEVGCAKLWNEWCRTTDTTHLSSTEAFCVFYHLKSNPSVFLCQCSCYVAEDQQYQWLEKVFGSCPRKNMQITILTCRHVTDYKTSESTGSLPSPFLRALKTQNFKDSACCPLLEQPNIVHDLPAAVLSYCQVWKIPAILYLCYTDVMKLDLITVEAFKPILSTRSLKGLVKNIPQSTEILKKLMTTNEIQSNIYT
T2 sequence (Q969U7 whole entry): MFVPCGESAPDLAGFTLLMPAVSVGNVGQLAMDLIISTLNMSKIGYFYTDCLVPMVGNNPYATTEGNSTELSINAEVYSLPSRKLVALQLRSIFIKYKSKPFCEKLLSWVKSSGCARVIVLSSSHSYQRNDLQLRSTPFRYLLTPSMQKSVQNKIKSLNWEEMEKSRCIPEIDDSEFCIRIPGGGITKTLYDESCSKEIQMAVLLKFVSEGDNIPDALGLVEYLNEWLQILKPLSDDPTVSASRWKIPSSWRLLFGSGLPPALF

[4] = tested on: HeLa; test: Cytotoxicity against human HeLa cells after 120 hrs by WST8 assay; format: functional, cell-based
[5] = tested on: HeLa; test: Cytotoxicity against human HeLa cells after 48 hrs by WST8 assay; format: functional, cell-based

Chain of Catenin beta-1/Transcription factor 7 (P36402 whole entry, the tested form may be a part): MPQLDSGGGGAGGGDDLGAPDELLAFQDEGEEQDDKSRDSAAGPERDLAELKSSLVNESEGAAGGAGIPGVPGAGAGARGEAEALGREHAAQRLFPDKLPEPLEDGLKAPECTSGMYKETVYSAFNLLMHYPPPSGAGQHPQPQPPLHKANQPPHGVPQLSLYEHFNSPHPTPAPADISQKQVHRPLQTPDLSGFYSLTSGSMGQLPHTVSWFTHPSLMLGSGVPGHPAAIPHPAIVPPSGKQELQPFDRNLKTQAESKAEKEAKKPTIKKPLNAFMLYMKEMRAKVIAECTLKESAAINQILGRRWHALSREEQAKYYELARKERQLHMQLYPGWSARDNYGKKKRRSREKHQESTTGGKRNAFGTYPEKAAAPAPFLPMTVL
Chain of Catenin beta-1/Transcription factor 7 (P35222 whole entry, the tested form may be a part): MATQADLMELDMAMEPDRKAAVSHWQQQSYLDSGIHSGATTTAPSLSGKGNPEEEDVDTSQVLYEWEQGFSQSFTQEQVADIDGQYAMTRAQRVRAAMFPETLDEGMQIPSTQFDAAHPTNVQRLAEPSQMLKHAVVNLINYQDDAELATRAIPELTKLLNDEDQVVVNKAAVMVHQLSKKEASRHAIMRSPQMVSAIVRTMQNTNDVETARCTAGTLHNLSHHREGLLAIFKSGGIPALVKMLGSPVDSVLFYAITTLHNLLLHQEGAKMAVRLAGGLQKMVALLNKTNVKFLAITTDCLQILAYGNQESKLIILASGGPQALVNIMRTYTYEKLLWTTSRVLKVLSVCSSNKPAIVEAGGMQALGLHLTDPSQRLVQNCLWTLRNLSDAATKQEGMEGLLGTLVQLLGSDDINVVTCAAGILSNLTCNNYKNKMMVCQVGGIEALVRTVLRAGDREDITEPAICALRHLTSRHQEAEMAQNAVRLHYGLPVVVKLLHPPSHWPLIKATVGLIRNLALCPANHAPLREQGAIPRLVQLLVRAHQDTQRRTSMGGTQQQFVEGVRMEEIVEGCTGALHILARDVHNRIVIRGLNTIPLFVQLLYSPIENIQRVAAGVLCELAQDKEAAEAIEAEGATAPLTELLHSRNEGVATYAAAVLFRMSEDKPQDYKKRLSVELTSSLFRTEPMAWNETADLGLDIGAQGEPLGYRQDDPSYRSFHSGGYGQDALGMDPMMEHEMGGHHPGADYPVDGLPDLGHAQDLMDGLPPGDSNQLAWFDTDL

SMILES: CC(C)[C@@](O)(C[C@H]1C(=O)/C(=C(\O)[C@H]2[C@@H]3CCCC[C@H]3C=C[C@H]2C)C(=O)N1C)C(=O)O
- pIC50 [1]: 5.22
- pIC50 [2]: 6.70
- pIC50 [3]: 5.22
- pIC50 [4]: 4.17

SMILES: COc1cccc2c1C(=O)c1c(O)c3c(c(O)c1C2=O)C[C@@](O)(C(=O)CO)C[C@@H]3O[C@H]1C[C@H](N)[C@H](O)[C@H](C)O1 [DOXORUBICIN]
- pIC50 [4]: 7.26
- pIC50 [5]: 7.43

SMILES: CC(=O)O[C@H]1C(=O)[C@@]2(C)[C@H]([C@H](OC(=O)c3ccccc3)[C@]3(O)C[C@H](OC(=O)[C@H](O)[C@@H](NC(=O)c4ccccc4)c4ccccc4)C(C)=C1C3(C)C)[C@]1(OC(C)=O)CO[C@@H]1C[C@@H]2O [PACLITAXEL]
- pIC50 [4]: 6.72
- pIC50 [5]: 7.52
